Paper PMC3673989, “Effect of Single Amino Acid Substitution Observed in Cancer on Pim-1 Kinase Thermodynamic Stability and Structure” (PLoS ONE, 2013)

Legend:
Pim-1 wild type [1] = target: T1, Pim-1 wild type (Homo sapiens, UniProt P11309); assay type: biochemical; details: ATP as substrate, wild type protein
T1 construct: hexahistidine tag (TEV-cleavable) (cleaved yes); made in house; host or cells: E. coli BL21(DE3)
Method: (§1) Phosphorylation reaction was monitored using a coupled-enzyme assay in which ADP production is coupled to NADH oxidation by pyruvate kinase and lactate dehydrogenase. […] In the Caliper mobility shift assays kinase reactions were analyzed by microfluidic capillary electrophoresis. The final assay buffer was 50 mM HEPES, pH 7.5, 1 mM DTT, 0.02% Tween 20, 0.02% BSA, 10 mM beta-glycerophosphate, 0.01 mM Na3VO4, 0.6% DMSO, 8 mM MgCl2, 2 µM peptide and 0.2 nM kinase. The reactions were started by addition of substrate mix consisting of ATP and peptide substrate to kinase and inhibitor solution. ATP concentrations were adjusted to the Kmvalues of the specific Pim enzyme. After incubation for 60 min at 30°C reactions were terminated with 100 mM HEPES pH 7.5, 5% DMSO, 0.1% coating reagent (Caliper Lifescience) 10 mM EDTA pH 8.0, 0.015% Brij35. Levels of substrate and product were quantified by measuring the laser-induced fluorescence intensities of fluorescein labels of the peptide.

Pim-1 E142D = target: T2, Pim-1 E142D (Homo sapiens, UniProt P11309, E142D); test: Inhibitor binding by temperature shift assay (SYPRO Orange); details: Pim-1 E142D 2 µM, compound 10 µM
T2 construct: hexahistidine tag (TEV-cleavable) (cleaved yes); made in house; host or cells: E. coli BL21(DE3)
Method: (§2) Thermal melting experiments were carried out using an Mx3005p Real Time PCR machine (Stratagene). Proteins were buffered in 10 mM HEPES pH 7.5, 500 mM NaCl and assayed in a 96-well plate at a final concentration of 2 µM in 20 µl volume. Compounds were added at a final concentration of 10 µM. SYPRO Orange (Molecular Probes) was added as a fluorescence probe at a dilution of 1∶1000. […] Data was analysed as previously described.

Pim-1 Y53H [2] = target: T3, Pim-1 Y53H (Homo sapiens, UniProt P11309, Y53H); test: as above; details: Pim-1 Y53H 2 µM, compound 10 µM
T3 construct: hexahistidine tag (TEV-cleavable) (cleaved yes); made in house; host or cells: E. coli BL21(DE3)
Method: as §2

Pim-1 E124Q = target: T4, Pim-1 E124Q (Homo sapiens, UniProt P11309, E124Q); test: as above; details: Pim-1 E124Q 2 µM, compound 10 µM
T4 construct: hexahistidine tag (TEV-cleavable) (cleaved yes); made in house; host or cells: E. coli BL21(DE3)
Method: as §2

Pim-1 wild type [3] = target: T1, Pim-1 wild type; test: as above; details: Pim-1 wild type 2 µM, compound 10 µM
Method: as §2

Pim-1 E135K = target: T5, Pim-1 E135K (Homo sapiens, UniProt P11309, E135K); test: as above; details: Pim-1 E135K 2 µM, compound 10 µM
T5 construct: hexahistidine tag (TEV-cleavable) (cleaved yes); made in house; host or cells: E. coli BL21(DE3)
Method: as §2

Pim-1 Y53H [4] = target: T3, Pim-1 Y53H; test: Caliper mobility shift kinase assay; assay type: biochemical; details: Y53H relative to Pim-1 wild type
Method: as §1

Pim-1 variants = test: Caliper mobility shift kinase assay; assay type: biochemical, human; details: exception K00487 and K00207a for Y53H
Method: as §1

T2 sequence (P11309 whole entry E142D): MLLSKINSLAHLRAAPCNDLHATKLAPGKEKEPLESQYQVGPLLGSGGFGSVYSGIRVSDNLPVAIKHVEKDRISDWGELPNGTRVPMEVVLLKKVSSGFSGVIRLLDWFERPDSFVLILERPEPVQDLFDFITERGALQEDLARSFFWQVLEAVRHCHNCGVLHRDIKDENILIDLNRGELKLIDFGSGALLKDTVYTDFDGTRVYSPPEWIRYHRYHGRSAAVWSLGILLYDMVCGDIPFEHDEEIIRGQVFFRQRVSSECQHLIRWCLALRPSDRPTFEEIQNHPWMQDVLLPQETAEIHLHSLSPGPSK
T3 sequence (P11309 whole entry Y53H): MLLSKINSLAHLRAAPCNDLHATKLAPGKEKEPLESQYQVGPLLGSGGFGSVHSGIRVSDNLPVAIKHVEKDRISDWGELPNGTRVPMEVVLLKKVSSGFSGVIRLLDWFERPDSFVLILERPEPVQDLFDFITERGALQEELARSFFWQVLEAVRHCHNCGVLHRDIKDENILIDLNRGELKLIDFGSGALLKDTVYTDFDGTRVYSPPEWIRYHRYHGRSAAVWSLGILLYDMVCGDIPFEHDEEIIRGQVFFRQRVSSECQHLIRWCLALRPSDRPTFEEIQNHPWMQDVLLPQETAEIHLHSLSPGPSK
T5 sequence (P11309 whole entry E135K): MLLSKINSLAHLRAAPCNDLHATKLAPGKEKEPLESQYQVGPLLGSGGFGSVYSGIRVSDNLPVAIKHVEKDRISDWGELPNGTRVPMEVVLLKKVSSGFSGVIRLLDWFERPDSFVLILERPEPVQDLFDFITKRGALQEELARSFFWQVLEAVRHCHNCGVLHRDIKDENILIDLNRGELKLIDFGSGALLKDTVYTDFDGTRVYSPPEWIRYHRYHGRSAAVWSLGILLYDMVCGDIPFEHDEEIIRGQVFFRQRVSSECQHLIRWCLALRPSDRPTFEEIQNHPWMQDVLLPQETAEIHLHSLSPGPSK
T4 sequence (P11309 whole entry E124Q): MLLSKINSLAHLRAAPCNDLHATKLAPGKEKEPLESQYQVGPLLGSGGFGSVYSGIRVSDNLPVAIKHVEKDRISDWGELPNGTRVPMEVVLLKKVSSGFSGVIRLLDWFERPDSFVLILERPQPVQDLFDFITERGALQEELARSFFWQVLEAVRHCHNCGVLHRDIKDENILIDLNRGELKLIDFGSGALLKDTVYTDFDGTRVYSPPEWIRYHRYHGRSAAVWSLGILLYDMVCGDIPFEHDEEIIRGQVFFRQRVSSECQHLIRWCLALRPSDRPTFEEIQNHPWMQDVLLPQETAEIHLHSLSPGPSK
T1 sequence (P11309 whole entry): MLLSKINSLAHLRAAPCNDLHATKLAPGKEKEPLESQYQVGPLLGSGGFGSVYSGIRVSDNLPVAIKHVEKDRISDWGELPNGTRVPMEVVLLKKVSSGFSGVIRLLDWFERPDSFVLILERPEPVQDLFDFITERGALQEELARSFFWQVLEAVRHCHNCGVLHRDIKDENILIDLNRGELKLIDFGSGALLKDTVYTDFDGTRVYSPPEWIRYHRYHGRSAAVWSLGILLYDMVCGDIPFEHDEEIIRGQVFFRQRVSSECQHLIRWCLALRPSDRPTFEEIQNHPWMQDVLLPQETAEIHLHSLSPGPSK

ΔTm (Pim-1 E142D) [K] | ΔTm (Pim-1 Y53H [2]) [K] | ΔTm (Pim-1 E124Q) [K] | ΔTm (Pim-1 wild type [3]) [K] | ΔTm (Pim-1 E135K) [K] | fold increase of IC50 versus wild type (Pim-1 Y53H [4]) [fold] | IC50 for Pim-1 variants compared with wild type (Pim-1 variants) | Compound | Km (Pim-1 wild type [1]) [µM]
 |  |  |  |  |  |  | Nc1ncnc2c1ncn2[C@@H]1O[C@H](COP(=O)(O)OP(=O)(O)OP(=O)(O)O)[C@@H](O)[C@H]1O [ATP] | 205
4.8 | 4.5 | 4.9 | 6.0 | 5.9 |  |  | COCCNc1ccc2ncc(-c3cccc(Cl)c3)n2n1 [K00478] | 
8.1 | 7.0 | 7.6 | 7.7 | 7.5 | 1.8 | closely similar | CCC(CO)Nc1ccc2ncc(-c3cccc(OC(F)(F)F)c3)n2n1 (centres unmarked) [K00487] | 
6.6 | 5.9 | 5.6 | 5.5 | 6.0 |  |  | Clc1ccc(-c2cnc3ccc(NC4CCOCC4)nn23)cc1 [K00499] | 
8.8 | 8.1 | 8.5 | 8.4 | 8.9 |  |  | CC(C)[C@@H](CO)Nc1ccc2ncc(-c3cccc(OC(F)(F)F)c3)n2n1 [K00512] | 
6.2 | 5.6 | 6.1 | 6.1 | 7.5 |  |  | CC(C)[C@@H](CO)Nc1ccc2ncc(-c3cccc(Cl)c3)n2n1 [K00514] | 
7.7 | 6.9 | 8.2 | 8.2 | 9.0 |  |  | CC(C)[C@@H](CO)Nc1ccc2ncc(-c3cccc(C(F)(F)F)c3)n2n1 [K00516] | 
5.3 | 4.6 | 4.3 | 5.6 | 6.4 |  |  | CC(=O)c1cccc(-c2cnc3ccc(N[C@H](CO)C(C)C)nn23)c1 [K00518] | 
6.4 | 5.5 | 5.0 | 6.8 | 6.5 |  |  | FC(F)(F)Oc1cccc(-c2cnc3ccc(NCC4CC4)nn23)c1 [K00520] | 
3.3 | 3.3 | 3.3 | 5.1 | 5.2 |  |  | Cn1c2c(c3ccc(Cl)c(Cl)c31)C(C#N)C1(CCOCC1)NC2=O (centres unmarked) [K01741a] | 
8.6 | 8.2 | 7.2 | 8.4 | 8.2 |  |  | CCN1CCC2(CC1)NC(=O)c1c(c3ccc(Cl)c(Cl)c3n1C)C2C#N (centres unmarked) [K01786a] | 
